Test results: patent US20240415918A1, “Polypeptide and its use as a CCK receptor agonist/antagonist” (Centre for Regenerative Medicine & Health, Hong Kong …, priority 2021, published 2024)
Where a SMILES comes first, the peptide text is derived from it. [ ]: non-standard residue; d: D form.

Target: T1, CCK-B receptors (CHO-CCK) (Homo sapiens, UniProt P32239)
T1 construct: expressed in transfected cells; host or cells: CHO (CHO-CCK model cells)
T1 sequence (P32239 1-447): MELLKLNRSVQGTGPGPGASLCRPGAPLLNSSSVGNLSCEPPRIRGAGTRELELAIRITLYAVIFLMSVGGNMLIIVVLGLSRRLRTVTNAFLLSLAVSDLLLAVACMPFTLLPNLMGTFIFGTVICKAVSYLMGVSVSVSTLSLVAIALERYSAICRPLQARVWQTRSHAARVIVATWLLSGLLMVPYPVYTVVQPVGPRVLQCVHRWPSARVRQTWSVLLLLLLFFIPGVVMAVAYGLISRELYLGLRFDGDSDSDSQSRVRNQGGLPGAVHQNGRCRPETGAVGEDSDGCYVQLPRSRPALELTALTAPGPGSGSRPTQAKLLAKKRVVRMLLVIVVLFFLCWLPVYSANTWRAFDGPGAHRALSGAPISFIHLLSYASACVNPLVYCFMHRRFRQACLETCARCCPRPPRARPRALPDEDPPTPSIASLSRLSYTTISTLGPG
Assay: Calcium flux (Fluo-8) agonist test on CHO-CCK model cells
Format: cell-based
Settings: for EC50: CHO-CCK cells, compound alone; for Agonistic Activity (%) at 10 μM: compound at 10 μM, percentage of signal of 20 nM CCK8 alone
Protocol: • To detect changes in intracellular calcium ion concentration after the compound acts on model cells containing CCK-B receptors (CHO-CCK).
• 1. The compound was formulated to a 10 mM mother liquor with DMSO, and then diluted into a series of 9 concentrations with a 3-fold gradient to form a 1000× stock solution.
2.1 Agonist • The compound stock solution was subjected to 200-fold dilution with HHBS buffer to form a 5× working solution.
• 1. Plate CHO-CCK cells in a 96-well plate with media containing 1% FBS, 30,000 cells/well/100 μL, and incubate overnight at 37° C. • 2. Prepare 1×Fluo-8 analysis buffer: mix 9 mL of HHBS, 1 mL of 10× Pluronic F127 Plus and 20 μL of Fluo-8 thoroughly for later use. • 3. Add Fluo-8 dye working solution to the cell plate, 100 μL/well. First incubate in a 37° C. incubator for 30 min, and then take it out and incubate at room temperature in the dark for 30 min. • 4. In the process of incubating cells, the compounds to be detected were prepared with HHBS. • 5.
The agonism/antagonism EC50 of the compound can be obtained by plotting the fitting curve with the agonism/antagonism percentage as Y-axis and the concentration of the compound as X-axis.

SMILES | EC50 (bound in μM) | Agonistic Activity (%) at 10 μM | EC50 (100% = 20 nM CCK8)
CSCC[C@H](NC(=O)[C@H](CC(=O)O)NC(=O)[C@@H](N)Cc1ccccc1)C(=O)N[C@@H](Cc1c[nH]c2ccccc12)C(=O)O [HT-1, Phe-Asp-Met-Trp-COOH] (H-FDMW-OH) | > 10 µM | – | –
CSCC[C@H](NC(=O)[C@H](CC(=O)O)NC(=O)[C@H](Cc1ccccc1)NC(C)=O)C(=O)N[C@@H](Cc1c[nH]c2ccccc12)C(=O)O [HT-2, Ac-Phe-Asp-Met-Trp-COOH] | > 10 µM | – | –
CSCC[C@H](NC(=O)[C@H](CC(=O)O)NC(=O)[C@H](Cc1ccccc1)NC(C)=O)C(=O)N[C@@H](Cc1c[nH]c2ccccc12)C(=O)O [HT-3, Ac-Phe-Asp-Met-Trp-NH2] | > 10 µM | – | –
CSCC[C@H](NC(=O)[C@@H](CC(=O)O)NC(=O)[C@H](Cc1ccccc1)NC(C)=O)C(=O)N[C@@H](Cc1c[nH]c2ccccc12)C(=O)O [HT-4, Ac-Phe-D-Asp-Met-Trp-NH2] | > 10 µM | – | –
CSCC[C@@H](NC(=O)[C@H](CC(=O)O)NC(=O)[C@H](Cc1ccccc1)NC(C)=O)C(=O)N[C@@H](Cc1c[nH]c2ccccc12)C(=O)O [HT-5, Ac-Phe-Asp-D-Met-Trp-NH2] | > 10 µM | – | –
CSCC[C@H](NC(=O)[C@H](CC(=O)O)NC(=O)[C@H](Cc1ccccc1)NC(C)=O)C(=O)N[C@H](Cc1c[nH]c2ccccc12)C(N)=O [HT-6, Ac-Phe-Asp-Met-D-Trp-NH2] (Ac-FDM[dW]-NH2) | > 10 µM | – | –
CSCC[C@@H](NC(=O)[C@@H](CC(=O)O)NC(=O)[C@H](N)Cc1ccccc1)C(=O)N[C@H](Cc1c[nH]c2ccccc12)C(=O)O [HT-7, D-Phe-D-Asp-D-Met-D-Trp-COOH] (H-[dF][dD][dM][dW]-OH) | > 10 µM | – | –
CSCC[C@@H](NC(=O)[C@@H](CC(=O)O)NC(=O)[C@@H](Cc1ccccc1)NC(C)=O)C(=O)N[C@H](Cc1c[nH]c2ccccc12)C(N)=O [HT-8, Ac-D-Phe-D-Asp-D-Met-D-Trp-NH2] (Ac-[dF][dD][dM][dW]-NH2) | > 10 µM | – | –
C[S+]([O-])CC[C@H](NC(=O)[C@H](N)Cc1c[nH]c2ccccc12)C(=O)N[C@@H](CC(=O)O)C(=O)N[C@@H](Cc1ccccc1)C(N)=O (stereo partly drawn) [HT-16, D-Trp-Met(O)-Asp-Phe-NH2] | – | 19.11% | –
CS(=O)(=O)CC[C@H](NC(=O)[C@H](N)Cc1c[nH]c2ccccc12)C(=O)N[C@@H](CC(=O)O)C(=O)N[C@@H](Cc1ccccc1)C(N)=O [HT-17, D-Trp-Met(O2)-Asp-Phe-NH2] | – | 19.12% | –
COC(=O)C[C@H](NC(=O)[C@H](CCSC)NC(=O)[C@H](N)Cc1c[nH]c2ccccc12)C(=O)N[C@@H](Cc1ccccc1)C(N)=O [HT-18, D-Trp-Met-Asp(OMe)-Phe-NH2] | – | 7.59% | –
COC(=O)C[C@H](NC(=O)[C@H](CC[S+](C)[O-])NC(=O)[C@H](N)Cc1c[nH]c2ccccc12)C(=O)N[C@@H](Cc1ccccc1)C(N)=O (stereo partly drawn) [HT-20, D-Trp-Met(O)-Asp(OMe)-Phe-NH2] | – | −9.73% | –
COC(=O)C[C@H](NC(=O)[C@H](CCS(C)(=O)=O)NC(=O)[C@H](N)Cc1c[nH]c2ccccc12)C(=O)N[C@@H](Cc1ccccc1)C(N)=O [HT-22, D-Trp-Met(O2)-Asp(OMe)-Phe-NH2] | – | 0.98% | –
CSCC[C@H](NC(=O)[C@H](N)Cc1c[nH]c2ccccc12)C(=O)N[C@@H](CC(=O)O)C(=O)N[C@@H](Cc1ccc(N=[N+]=[N-])cc1)C(N)=O [HT-31, D-Trp-Met-Asp-Phe(4-N3)-NH2] | – | 6.07% | –
C[S+]([O-])CC[C@H](NC(=O)[C@H](N)Cc1c[nH]c2ccccc12)C(=O)N[C@@H](CC(=O)O)C(=O)N[C@@H](Cc1ccccc1[N+](=O)[O-])C(N)=O (stereo partly drawn) [HT-41, D-Trp-Met(O)-Asp-Phe(2-NO2)-NH2] | – | −11.17% | –
Cc1ccc(C[C@H](NC(=O)[C@H](CC(=O)O)NC(=O)[C@H](CC[S+](C)[O-])NC(=O)[C@H](N)Cc2c[nH]c3ccccc23)C(N)=O)cc1 (stereo partly drawn) [HT-47, D-Trp-Met(O)-Asp-Phe(4-Me)-NH2] | – | 26.99% | –
C[S+]([O-])CC[C@H](NC(=O)[C@H](N)Cc1c[nH]c2ccccc12)C(=O)N[C@@H](CC(=O)O)C(=O)N[C@@H](Cc1ccc(N=[N+]=[N-])cc1)C(N)=O (stereo partly drawn) [HT-48, D-Trp-Met(O)-Asp-Phe(4-N3)-NH2] | – | 17.23% | –
C[S+]([O-])CC[C@H](NC(=O)[C@H](N)Cc1c[nH]c2ccccc12)C(=O)N[C@@H](CC(=O)O)C(=O)N[C@@H](Cc1ccc(C#N)cc1)C(N)=O (stereo partly drawn) [HT-49, D-Trp-Met(O)-Asp-Phe(4-CN)-NH2] | – | 1.03% | –
C[S+]([O-])CC[C@H](NC(=O)[C@H](N)Cc1c[nH]c2ccccc12)C(=O)N[C@@H](CC(=O)O)C(=O)N[C@@H](Cc1ccc([N+](=O)[O-])cc1)C(N)=O (stereo partly drawn) [HT-50, D-Trp-Met(O)-Asp-Phe(4-NO2)-NH2] | – | 11.85% | –
C[S+]([O-])CC[C@H](NC(=O)[C@H](N)Cc1c[nH]c2ccccc12)C(=O)N[C@@H](CC(=O)O)C(=O)N[C@@H](Cc1ccc(Br)cc1)C(N)=O (stereo partly drawn) [HT-51, D-Trp-Met(O)-Asp-Phe(4-Br)-NH2] | – | 17.18% | –
C[S+]([O-])CC[C@H](NC(=O)[C@H](N)Cc1c[nH]c2ccccc12)C(=O)N[C@@H](CC(=O)O)C(=O)N[C@@H](Cc1ccc(Cl)cc1)C(N)=O (stereo partly drawn) [HT-52, D-Trp-Met(O)-Asp-Phe(4-Cl)-NH2] | – | 15.71% | –
C[S+]([O-])CC[C@H](NC(=O)[C@H](N)Cc1c[nH]c2ccccc12)C(=O)N[C@@H](CC(=O)O)C(=O)N[C@@H](Cc1ccc(I)cc1)C(N)=O (stereo partly drawn) [HT-54, D-Trp-Met(O)-Asp-Phe(4-I)-NH2] | – | 3.14% | –
C[S+]([O-])CC[C@H](NC(=O)[C@H](N)Cc1c[nH]c2ccccc12)C(=O)N[C@@H](CC(=O)O)C(=O)N[C@@H](Cc1cc(F)cc(F)c1)C(N)=O (stereo partly drawn) [HT-56, D-Trp-Met(O)-Asp-Phe(3,5-DiF)-NH2] | – | 43.98% | –
C[S+]([O-])CC[C@H](NC(=O)[C@H](N)Cc1c[nH]c2ccccc12)C(=O)N[C@@H](CC(=O)O)C(=O)N[C@@H](Cc1cc(F)c(F)c(F)c1)C(N)=O (stereo partly drawn) [HT-57, D-Trp-Met(O)-Asp-Phe(3,4,5-TriF)-NH2] | – | 56.81% | 6.79 µM
CS(=O)(=O)CC[C@H](NC(=O)[C@H](N)Cc1c[nH]c2ccccc12)C(=O)N[C@@H](CC(=O)O)C(=O)N[C@@H](Cc1ccccc1[N+](=O)[O-])C(N)=O [HT-58, D-Trp-Met(O2)-Asp-Phe(2-NO2)-NH2] | – | 23.63% | –
CS(=O)(=O)CC[C@H](NC(=O)[C@H](N)Cc1c[nH]c2ccccc12)C(=O)N[C@@H](CC(=O)O)C(=O)N[C@@H](Cc1cccc(I)c1)C(N)=O [HT-62, D-Trp-Met(O2)-Asp-Phe(3-I)-NH2] | – | 4.26% | 4.37 µM
Cc1ccc(C[C@H](NC(=O)[C@H](CC(=O)O)NC(=O)[C@H](CCS(C)(=O)=O)NC(=O)[C@H](N)Cc2c[nH]c3ccccc23)C(N)=O)cc1 [HT-64, D-Trp-Met(O2)-Asp-Phe(4-Me)-NH2] | – | 17.43% | –
